Assay results as given in US20060134801A1, “Methods and compositions involving MDA-7” (Board of Regents, The University of Texas System, priority 2003, published 2006).

Columns and labels:
[1] = test system: H1299; experiment: Cell proliferation assay (trypan blue); format: cell-based; details: Homo sapiens, NCI-H1299; read-out: IC50 of growth inhibition
Procedure: (§1) All three cell lines (A549, H1299, and CCD-16) were seeded in 60-mm-diameter tissue culture dishes at a density of 1×10^5 cells/dish in triplicate. […] The concentrations of sulindac tested were 0.125, 0.25, and 0.5 mM. At 72 h after the start of treatment, the cells were harvested by trypsinization, washed, and subjected to typan-blue exclusion assay as previously described (Saeki et al., 2000).

[2] = test system: H1299; experiment: Ad-GFP transduction efficiency with sulindac (flow cytometry); format: cell-based, human; details: Ad-GFP 100 vp/cell, 24 h
Procedure: (§2) To determine the effect of sulindac on adenovirus transduction, tumor and normal cells were infected with Ad-GFP at 100 vp/cell and analyzed for GFP expression at 24 h by FACS.

[3] = test system: CCD-16; experiment: as above; format: cell-based, human; details: Ad-GFP 100 vp/cell, 24 h
Procedure: as §2

[4] = test system: A549; experiment: as above; format: cell-based, human; details: Ad-GFP 100 vp/cell, 24 h
Procedure: as §2

[5] = test system: CCD-16; experiment: Cell proliferation assay (trypan blue); format: cell-based, human
Procedure: as §1

[6] = test system: H1299 lung tumor xenografts; experiment: H1299 subcutaneous xenograft, Ad-mda7 with sulindac; details: vector 3×10^9 vp intratumoral thrice a week; sulindac 40 mg/kg i.p. daily
Procedure: In mice receiving sulindac, 40 mg/kg was administered i.p. every day. Animals were weighed once a week to determine the body weight. Tumor growth was monitored and measured three times a week as described previously (Saeki et al., 2002; Ramesh et al., 2003). At 22-25 days after initiation of the treatment all animals were killed via CO2 inhalation, and the tumors were removed for histopathologic examination and western blot analysis. Experiments were performed two separate times for reproducibility and statistical significance.

[7] = test system: H1299; experiment: Cell cycle distribution by FACS; format: cell-based, human; details: 72 h
Procedure: (§3) Each treatment group was tested in triplicate. The concentrations of sulindac used were the same as those for the cell-proliferation assay. At 72 h after the start of the treatment, cells were harvested, washed, and analyzed for cell cycle phases and apoptotic fraction as previously described (Saeki et al., 2000). The cell cycle phases and DNA contents were analyzed using FACScan (EPICS XL-MCL; Beckman Coulter, Fullerton, Calif.).

[8] = test system: A549; experiment: Cell cycle distribution by FACS; format: cell-based, human; details: 72 h
Procedure: as §3

[9] = test system: NF-κB; experiment: NF-κB activation by EMSA; format: cell-based, human; details: H1299 and A549
[10] = molecular target: T1, proteasome in H1299 cells (Homo sapiens, UniProt P28074); experiment: Proteasome activity assay and ubiquitinated protein western blot; format: cell-based; details: vs untreated control cells
T1 construct: endogenous in cells; host or cells: H1299 human lung cancer cells, treated and then lysed; 20 µg total lysate protein per reaction
Procedure: Proteasome activity assays were performed as previously described (Choi et al., 2003). […] The sulindac concentrations tested were the same as those in the other assays. At 24 h after the start of treatment, the cells were lysed in proteasome buffer (10 mM Tris-HCl, pH 7.5, 1 mM EDTA, 20% glycerol, 5 mM ATP, and 4 mM DTT), sonicated, and then centrifuged at 1300×g at 4° C. for 10 min. The upper supernatant phase was collected, and the protein concentration of cell lysates was determined as previously described (Saeki et al., 2000).
To assay the chymotrypsin-like activity of the proteasome, the fluorogenic substrate Suc-LLVY-AMC (Chemicon International, Inc., Temecula, Calif.) was used. Twenty micrograms of total protein from each treatment group described above was diluted to 100 μl in reaction buffer (25 mM HEPES, pH 7.5, 0.5 mM EDTA, 0.05% NP-40, and 0.001% SDS). […] The intensity of fluorescence in each sample solution was measured using a fluorescence plate reader (Dynatech Laboratories, Chantily, Va.) at 360-nm excitatory and 460-nm emission wavelengths. All readings were standardized using the fluorescence intensity of an equal volume of free 7-Amino-4-methylcoumarin (AMC) solution (50 μM). The values were expressed as percentages for control greater than the internal positive control percentages provided by the supplier.

[11] = test system: A549; experiment: Cell proliferation assay (trypan blue); format: cell-based, human
Procedure: as §1, with “The concentrations of sulindac tested were 0.125, 0.25, and 0.5 mM.” left out

T1 sequence (P28074 60-263): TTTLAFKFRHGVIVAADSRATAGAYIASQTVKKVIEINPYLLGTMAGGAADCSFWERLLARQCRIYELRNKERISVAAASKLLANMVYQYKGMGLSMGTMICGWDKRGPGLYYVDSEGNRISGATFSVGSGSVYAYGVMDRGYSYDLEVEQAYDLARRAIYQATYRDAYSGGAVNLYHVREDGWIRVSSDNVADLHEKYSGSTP

CC1=C(CC(=O)O)c2cc(F)ccc2/C1=C\c1ccc([S+](C)[O-])cc1 (centres unmarked) [Sulindac]
IC50 [1]: 610 µM
transduction efficiency ([2]; sulindac 0.125 mM): 80.0 ± 0.5%
transduction efficiency ([2]; sulindac 0.25 mM): 78.6 ± 1.2%
transduction efficiency ([2]; sulindac 0.5 mM): 82.7 ± 2.8%
transduction efficiency ([3]; sulindac 0.125 mM): 12.1 ± 0.4%
transduction efficiency ([3]; sulindac 0.25 mM): 11.1 ± 1.0%
transduction efficiency ([3]; sulindac 0.5 mM): 13.7 ± 0.4%
transduction efficiency ([4]; sulindac 0.125 mM): 52.4 ± 0.6%
transduction efficiency ([4]; sulindac 0.25 mM): 51.5 ± 1.3%
transduction efficiency ([4]; sulindac 0.5 mM): 65.0 ± 1.5 + a %
IC50 ([5]; Homo sapiens, read-out: IC50 of growth inhibition): 940 µM
inhibitory effect on cell proliferation ([5]; normal cells, 1 and 2 mM): 60%
tumor growth [6]: No significant growth inhibition
cells in G1 ([7]; sulindac 0.125 mM): 66.4%
cells in G2/M ([7]; sulindac 0.125 mM): 11.4%
cells in S ([7]; sulindac 0.125 mM): 22.3%
cells in G1 ([7]; sulindac 0.5 mM): 74.6%
cells in G2/M ([7]; sulindac 0.5 mM): 12.7%
cells in S ([7]; sulindac 0.5 mM): 13.0%
cells in G1 ([8]; sulindac 0.125 mM): 64.8%
cells in G2/M ([8]; sulindac 0.125 mM): 6.4%
cells in S ([8]; sulindac 0.125 mM): 28.9%
cells in G1 ([8]; sulindac 0.5 mM): 75.6%
cells in G2/M ([8]; sulindac 0.5 mM): 6.0%
cells in S ([8]; sulindac 0.5 mM): 18.5%
NF-κB activation [9]: inhibit NF-κB activation
proteasome activity [10]: does not inhibit
IC50 ([11]; Homo sapiens, A549, read-out: IC50 of growth inhibition): 580 µM
inhibitory effect on cell proliferation ([11]; tumor cells, 1 and 2 mM): > 90%
